Patent publication US10160716B2, “Compounds and methods of use thereof for treating tumors” (Georgetown University, priority 2012, dated 2018)
Blank lines part the entries; values can stand above or below the molecule they belong to.

Assays:
ER-α = target: T1, ER-α (Homo sapiens, UniProt P03372); assay: ERE-TK-Luc reporter assay of E2-stimulated ER-α transcriptional activity in MCF-7 cells; assay type: cell-based; details: for IC80: MCF7, read-out: IC80 (concentration required for inhibition of ER-α activity by 80%); for IC50: read-out: IC50 (concentration required for inhibition of ER-α activity by 50%)
T1 construct: endogenous in cells; host or cells: MCF-7
T1 sequence (P03372 1-595): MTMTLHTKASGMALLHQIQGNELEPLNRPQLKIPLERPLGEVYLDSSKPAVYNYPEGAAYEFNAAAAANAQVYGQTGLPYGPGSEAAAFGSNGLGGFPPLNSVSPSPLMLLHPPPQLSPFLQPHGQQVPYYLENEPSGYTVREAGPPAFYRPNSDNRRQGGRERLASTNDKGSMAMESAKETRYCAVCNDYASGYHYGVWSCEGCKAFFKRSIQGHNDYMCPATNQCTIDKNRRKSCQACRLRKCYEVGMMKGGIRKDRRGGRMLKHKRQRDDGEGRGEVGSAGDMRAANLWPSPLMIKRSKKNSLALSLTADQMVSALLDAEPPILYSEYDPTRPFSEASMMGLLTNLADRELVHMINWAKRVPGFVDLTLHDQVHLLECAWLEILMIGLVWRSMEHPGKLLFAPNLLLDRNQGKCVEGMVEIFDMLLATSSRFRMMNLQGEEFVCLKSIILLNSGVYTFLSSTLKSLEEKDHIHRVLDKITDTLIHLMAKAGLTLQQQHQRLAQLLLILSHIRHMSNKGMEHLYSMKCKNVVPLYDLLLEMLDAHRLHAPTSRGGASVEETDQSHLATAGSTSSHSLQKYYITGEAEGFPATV
Procedure: Briefly, MCF7 or T47D cells are transfected overnight with an ERE-TK-Luc reporter construct. An ERE-TK-Luc construct contains an estrogen response element (ERE) upstream of a minimal thymidine kinase (TK) promoter that drives the expression of the luciferase (Luc) reporter gene. After transfection, the cells are subsequently washed and allowed to recover for several hours. […] The cells are subsequently harvested for luciferase reporter assays.
Three compounds were tested for their ability to inhibit ER-α activity. […] Initially, each compound was tested at doses of 1 μM and 50 μM.

MCF-7 cells = assay: E2 stimulated proliferation of MCF-7 cells (cell counts); assay type: cell-based, human
Source text: Briefly, cells were inoculated into 12-well dishes at 1×10^4 cells per well on day 0 in 5% charcoal-stripped serum (CSS). […] Triplicate wells were counted on days 1-4 to determine the effect of 103(f) on cell growth.

MCF-7 = details: MCF-7, ER-α +; cited from earlier work
LCC1 = details: LCC1, ER-α +; cited from earlier work
LCC2 = details: LCC2, ER-α +; cited from earlier work
LCC9 = details: LCC9, ER-α +; cited from earlier work

IC80 (ER-α): 5 µM | IC50 (ER-α): 3 µM
Structure (SMILES): CC(C)=CC1C(COC(=O)c2cc3c(cc2Cl)OCO3)C1(C)C (stereo not drawn) [Compound 103(f)]
effect on E2-stimulated cell growth (MCF-7 cells; 5 μM or 20 μM in the presence of 10 nM E2, P<0.01): blocked most of the E2-stimulated cell growth | effect on cell growth, compound alone (MCF-7 cells; 5 μM or 20 μM, without E2, compared with DMSO, days 1-4): little or no effect on cell growth

IC80 (ER-α): 40 µM | IC50 (ER-α): 12 µM
Structure (SMILES): Nc1nc(Cc2ccccc2)nc(Cc2ccccc2)c1-c1ccccc1 [Compound 301]

IC80 (ER-α): 50 µM | IC50 (ER-α): 4 µM
Structure (SMILES): O=C(O)CCCc1ccc2ccccc2c1 [Compound 201]

Structure (SMILES): CC/C(=C(\c1ccccc1)c1ccc(OCCN(C)C)cc1)c1ccccc1 [Tamoxifen]
Response to Tamoxifen (MCF-7): Sensitive | Response to Tamoxifen (LCC1): Sensitive | Response to Tamoxifen (LCC2): Resistant | Response to Tamoxifen (LCC9): Resistant

Structure (SMILES): C[C@]12CC[C@@H]3c4ccc(O)cc4C[C@@H](CCCCCCCCC[S+]([O-])CCCC(F)(F)C(F)(F)F)[C@H]3[C@@H]1CC[C@@H]2O (stereo partly drawn) [Fulvestrant]
Response to Fulvestrant (MCF-7): Sensitive | Response to Fulvestrant (LCC1): Sensitive | Response to Fulvestrant (LCC2): Sensitive | Response to Fulvestrant (LCC9): Resistant

Structure (SMILES): C[C@]12CC[C@@H]3c4ccc(O)cc4CC[C@H]3[C@@H]1CC[C@@H]2O [Compound E2, 17β-estradiol]
cell density by day 4 (MCF-7 cells; DMSO+E2 (10 nM), seeded 1×10^4 cells per well, 2% CSS): 9×10^4 cells per well | Response to Estradiol (E2) (MCF-7): E2-responsive; E2-dependent growth | Response to Estradiol (E2) (LCC1): Partially E2-depenedent growth | Response to Estradiol (E2) (LCC2): E2-dependent growth | Response to Estradiol (E2) (LCC9): E2-insensitive growth; some E2-responsive
